This note sets out measurements from PubChem BioAssay (NCI).

Holding throughout (experiment): growth of human tumour cells (NCI), 48 h
Assay [1] deals with K-562 leukemia.
The subject of assay [2] is LOX IMVI melanoma.
In assay [3] the test system is SW-620 colon.
For assay [4], the system named is PC-3 prostate.
The test system of assay [5] is TK-10 renal.
The subject of assay [6] is U251 CNS.
Assay [7] concerns MDA-N.
Assay [8] deals with SK-MEL-28 melanoma.
Assay [9] deals with RPMI-8226 leukemia.
Assay [10] has as its system ACHN renal.
For assay [11], the system named is A498 renal.
Assay [12] deals with MDA-MB-231 breast.
Assay [13] has as its system A549 NSCLC.
Assay [14] relates to HS 578T breast.
Assay [15] has as its system SK-MEL-2 melanoma.
The subject of assay [16] is UO-31 renal.
The test system of assay [17] is OVCAR-3 ovarian.
Assay [18] deals with MOLT-4 leukemia.

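Tested at 5 concentrations; 48 h exposure; 96-well plates; endpoints linearly interpolated, else capped at highest concentration. At the TGI there is no net growth.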 A value given as a limit tells only on which side of the number the result lay.

Turning to `CCSC1=N/C(=C\c2ccco2)C(Cl)=N1`, the TGI in assay [1], in assay [2], in assay [3], in assay [4], in [5] and in assay [6] was over 100 µM throughout. Moreover, the TGI in assay [7], in [8], in [9], in [10], in [11] and in [12] was over 100 µM throughout. Moreover, the TGI in assay [13], in assay [14], in assay [15], in assay [16], in assay [17] and in assay [18] was over 100 µM in each case.

On to `COc1cccc2c(Nc3ccc(S(=O)(=O)NC(C)=O)cc3)c3ccc([N+](=O)[O-])cc3nc12`, for which the TGI in [1] is over 84.7 µM; in assay [2], over 100 µM; in assay [3], over 79.8 µM; in assay [4] it was over 100 µM; in assay [5], over 56.7 µM; in assay [6], over 53.5 µM. Moreover, the TGI is over 100 µM in assay [7]; over 79.5 µM in assay [8]; over 100 µM in assay [9]; over 100 µM in assay [10]; over 100 µM in [11]; 56.6 µM in assay [12]. In addition, the TGI in [13] was over 100 µM; in assay [14] it was over 100 µM; in assay [15] it was over 100 µM; in assay [16], over 100 µM; in [17], over 90.4 µM; in assay [18], 80.5 µM.

As to `CCOC(=O)C(NC(=O)CC(C)C)(Nc1ccc(S(=O)(=O)Nc2nc(C)cc(C)n2)cc1)C(F)(F)F` (centres undefined), the TGI in assay [1], in assay [2], in assay [3], in assay [4], in assay [5] and in assay [6] was over 100 µM throughout. Besides, the TGI in assay [7], in [8], in assay [9], in assay [10], in assay [11] and in assay [12] was over 100 µM throughout. Besides, the TGI in assay [13], in [14], in [15], in assay [16], in [17] and in [18] was over 100 µM throughout.

Regarding `CCOC(=O)/C(C#N)=C1\c2c([nH]c(=S)[nH]c2=O)Oc2ccc3ccccc3c21`, the TGI is over 100 µM in [1]; over 100 µM in [2]; 12.2 µM in [3]; over 100 µM in assay [4]; over 100 µM in assay [5]; over 100 µM in assay [6]. Besides, the TGI in [7] is over 100 µM; in assay [8], 3.81 µM; in [9], over 100 µM; in [10] it was over 100 µM; in [11] it was over 100 µM; in assay [12], over 100 µM. Besides, the TGI is over 100 µM in assay [13]; over 100 µM in assay [14]; 41 µM in assay [15]; over 100 µM in assay [16]; 58.8 µM in assay [17]; 47.3 µM in assay [18].

`CCN(CC)C(=S)SNCc1ccc(S(N)(=O)=O)cc1`: the TGI in assay [1] was over 100 µM; in assay [2], 28.8 µM; in assay [3], over 50.1 µM; in assay [4], 26.1 µM; in assay [5], over 66 µM; in assay [6], 15.8 µM. Besides, the TGI was 29 µM in [7]; over 48.9 µM in assay [8]; 22.8 µM in assay [9]; 29.6 µM in [10]; over 100 µM in [11]; 37.1 µM in assay [12]. The TGI in assay [13] was 26.3 µM; in assay [14], 50.4 µM; in assay [15], 39.5 µM; in assay [16] it was 28.8 µM; in assay [17], 27.5 µM; in assay [18] it was over 62.2 µM.

On to `Nc1cn(Cc2ccccc2)c2nc(/C=C3/C=CC=CC3=O)c(O)n12`, for which the TGI in assay [1], in assay [2], in assay [3], in assay [4], in [5] and in [6] was over 100 µM throughout. In addition, the TGI in [7], in assay [8], in assay [9], in assay [10], in assay [11] and in assay [12] was over 100 µM throughout. The TGI in [13], in assay [14], in assay [15], in assay [16], in assay [17] and in [18] was over 100 µM each time.

For the molecule `NC(N)=N/N=C/c1c(-c2ccc([N+](=O)[O-])cc2)nc2n1CCS2`, the TGI is 22.6 µM in assay [1]; 35 µM in assay [2]; 7.33 µM in assay [3]; 27.7 µM in assay [4]; 31.5 µM in assay [5]; 6.49 µM in assay [6]. In addition, the TGI in [7] is 26.5 µM; in assay [8] it was 34.8 µM; in assay [9] it was over 63.3 µM; in assay [10] it was 30.7 µM; in assay [11] it was 42 µM; in assay [12], 16 µM. Also, the TGI in assay [13] was 36.2 µM; in assay [14], 39.1 µM; in assay [15], 22 µM; in assay [16], 30.2 µM; in assay [17] it was 41.3 µM; in assay [18] it was over 33 µM.

For `c1ccc(Nc2nnc(Cn3ccc4ccccc43)s2)cc1`, the TGI in [1], in assay [2], in assay [3], in assay [4], in [5] and in assay [6] was over 100 µM each time. Also, the TGI in [7], in assay [8], in assay [9], in assay [10], in [11] and in [12] was over 100 µM in each case. For the same molecule, the TGI in assay [13], in [14], in assay [15], in assay [16], in assay [17] and in assay [18] was over 100 µM in each case.

Regarding `CC(=O)OC1COC(n2c(-c3ccc(Cl)cc3)cc(-c3ccccc3)c(C#N)c2=S)C(OC(C)=O)C1OC(C)=O` (centres undefined), the TGI was over 59.8 µM in [1]; 15.5 µM in [2]; over 100 µM in assay [3]; 46.3 µM in assay [4]; over 73.4 µM in assay [5]; 15.5 µM in assay [6]. For the same molecule, the TGI in assay [7] is over 100 µM; in assay [8], over 45.8 µM; in assay [9] it was over 100 µM; in assay [10], over 31.6 µM; in [11], 34.1 µM; in assay [12] it was 9.38 µM. Also, the TGI is 30.6 µM in [13]; 24.6 µM in assay [14]; 29.4 µM in [15]; 38.4 µM in assay [16]; 18.2 µM in assay [17]; over 100 µM in [18].

Consider `CC(=O)OCC1OC(N2C(C)=C(C(C)=O)C(c3ccco3)C(C#N)=C2S)C(OC(C)=O)C(OC(C)=O)C1OC(C)=O` (centres undefined), for which the TGI in assay [1], in [2], in [3], in assay [4], in assay [5] and in assay [6] was over 100 µM throughout. The TGI in assay [7], in assay [8], in assay [9], in assay [10], in assay [11] and in assay [12] was over 100 µM in each case. For the same molecule, the TGI in assay [13], in assay [14], in [15], in assay [16], in [17] and in assay [18] was over 100 µM each time.

`N#Cc1c(Cl)c2ccccc2n2c1nc1ccccc12`: the TGI in assay [1] is over 100 µM; in [2] it was 34.6 µM; in assay [3], over 100 µM; in [4] it was over 100 µM; in assay [5], 36.5 µM; in [6], over 100 µM. For the same molecule, the TGI in [7] was over 100 µM; in [8] it was over 100 µM; in assay [9], 72.7 µM; in [10], 32.6 µM; in assay [11], over 100 µM; in [12], 74 µM. Besides, the TGI in assay [13] was over 100 µM; in [14], 63.1 µM; in [15] it was over 100 µM; in assay [16] it was 38.2 µM; in assay [17], over 100 µM; in assay [18] it was 75.9 µM.

With `O=C1c2ccccc2-c2ccc(N=Nc3c(O)ccc4ccccc34)cc21`, the TGI in assay [1], in [2], in [3], in assay [4], in assay [5] and in assay [6] was over 100 µM in each case. Besides, the TGI in assay [7], in assay [8], in assay [9], in assay [11], in [12] and in [13] was over 100 µM throughout. In addition, the TGI in [14], in assay [15], in [16], in [17] and in assay [18] was over 100 µM throughout.

Consider `COc1ccc(C(c2c[nH]c3ccc(Br)cc23)c2c[nH]c3ccc(Br)cc23)cc1`, for which the TGI stood at 0.423 µM in [1]; 0.314 µM in assay [2]; 1.1 µM in assay [3]; 0.843 µM in assay [4]; 2.27 µM in [5]; 0.557 µM in assay [6]. Besides, the TGI was 0.552 µM in [7]; 0.743 µM in [8]; 0.543 µM in assay [9]; 0.845 µM in [10]; 2.29 µM in assay [11]; 0.705 µM in assay [12]. In addition, the TGI in [13] stood at 1.22 µM; in [14] it was 3.81 µM; in [15] it was 1.22 µM; in assay [16], 1.69 µM; in assay [17] it was 0.52 µM; in [18] it was 0.478 µM.

Regarding `COC(=O)c1ccccc1/C=C1\Cc2cc(C)cc(C)c2C1=O`, the TGI in [1], in [2], in [3], in [4], in assay [5] and in assay [6] was over 100 µM each time. For the same molecule, the TGI in [7], in assay [8], in assay [9], in [10], in assay [11] and in assay [12] was over 100 µM in each case. For the same molecule, the TGI in assay [13], in assay [14], in assay [15], in assay [17] and in [18] was over 100 µM each time.

Consider `CCCCC(=O)NC1(c2cc3ccccc3s2)CCCCC1`, for which the TGI in assay [1], in assay [2], in assay [3], in assay [4], in assay [5] and in assay [6] was over 100 µM throughout. Also, the TGI in [7], in assay [8], in assay [9], in assay [10], in [11] and in assay [12] was over 100 µM each time. In addition, the TGI in assay [13], in [14], in [15], in assay [16] and in [17] was over 100 µM in each case.

With `O=[N+]([O-])c1ccc2[nH]ncc2c1Cl`, the TGI was over 100 µM in assay [1]; 38.9 µM in [2]; over 100 µM in [3]; 90.7 µM in assay [4]; over 100 µM in assay [5]; over 100 µM in assay [6]. Also, the TGI in assay [7] was 48.1 µM; in assay [8], over 100 µM; in [9], 61.2 µM; in [10], 51.5 µM; in assay [11] it was over 100 µM; in assay [12] it was 35 µM. For the same molecule, the TGI is over 100 µM in [13]; 59.3 µM in assay [14]; 40.4 µM in assay [15]; over 100 µM in assay [17]; 72.6 µM in [18].
